# Measured values from publication PMC3466204 (PLoS ONE, 2012).
# Several values for one entry are separate records, joined by “and”; a condition that tells them apart may be missing. Equal values may be shown once. Ends that are not written are not given here.
# Columns and labels:
# L. lactis MG1363 [1] = conditions: truncated nisin, ref [36]; cited from earlier work
# Excerpt: The increased efficacy resulted from a single mutation located at serine 29, within the C-terminal of nisin. The importance of Serine 29 for activity has previously been noted when Chan et al report ...
# Lactococcus lactis HP = assay: Agarose-based assay of cell-free supernatants of S29X producing strains; conditions: for Zone Diameter (mm): agarose (1%) GM17 assay, 10 µl cell-free supernatant of overnight producing culture in 4.6 mm wells, L. lactis HP, 30°C; for % difference (zone relative to wild type): agarose assay of supernatants against L. lactis HP, wild type serine = 100
# Method: (§1) Agarose-based deferred antagonism assays were carried out as follows: GM17/LB (0.03%) underlay was prepared with 10 mM sodium phosphate buffer (SPB) at pH 7.4 to which was added agarose (1% w/v agarose), autoclaved and cooled to 50°C. Bacteria grown to mid-logarithmic phase were harvested by centrifugation and washed with 10 mM SPB at pH 7.4. Bacteria were then added to 15 mls cooled underlay medium to reach a concentration of 2×10^7 colony-forming units (CFU)/mL. The inoculated medium was rapidly transferred into sterile Petri plates, allowed to solidify and dried. Wells (4.6 mm in diameter) were then made in the seeded plates. 10 µl volumes of cell-free supernatant from overnight nisin derivative producing cultures or resuspended purified peptides were then added to the wells and the plates incubated at 30°C (L. lactis) or 37°C (Gram positive strains) or RT (Gram negative strains) for 3 hours. Polymyxin B (Sigma Aldrich) was used at a concentration of 20 µg/ml. The plates were then overlaid with 15 mls of autoclaved double strength GM17 (L. lactis) or LB (Gram negatives) agarose (1% w/v agarose) overlay medium precooled to 50°C. The plates were then incubated overnight at the relevant temperature.
# L. lactis HP = assay: Broth MIC, Gram positive; assay type: cell-based; conditions: broth microtitre, BSA pre-treated plates, 10^5 cfu ml^−1, 2-fold dilutions from 500 nM, 16 h, purified peptide, mean of triplicate assays
# Method: (§2) Minimum inhibitory concentration determinations for Gram positive organisms were carried out in triplicate in microtitre plates (Sarstedt). 96 well microtitre plates were pre-treated with bovine serum albumin (BSA) prior to addition of the peptides. Briefly, to each well of the microtitre plate 200 µL of phosphate buffered saline (PBS) containing 1% (w/v) bovine serum albumin (PBS/BSA) was added and incubated at 37°C for 30 min. The wells were washed with 200 µL PBS and allowed to dry. Target strains were grown overnight in the appropriate conditions and medium, subcultured into fresh broth and allowed to grow to an OD600 of ∼0.5, diluted to a final concentration of 10^5 cfu ml^−1 in a volume of 0.2 ml. Wild type nisin and nisin mutant peptides were adjusted to a 10 µM (S. mitis, B. cereus), 7.5 µM (L. monocytogenes), 5 µM (hVISA) 2.5 µM (MRSA, E. durans), or 500 nM (L. lactis strains) starting concentration and 2-fold serial dilutions of each peptide were added to the target strain.
# L. lactis MG1363 [2] = assay: Broth MIC, Gram positive; assay type: cell-based; conditions: broth microtitre, BSA pre-treated plates, 10^5 cfu ml^−1, 2-fold dilutions from 500 nM, 16 h, purified peptide, mean of triplicate assays
# Method: as §2
# L. monocytogenes 10403S = assay: Broth MIC, Gram positive; assay type: cell-based; conditions: broth microtitre, BSA pre-treated plates, 10^5 cfu ml^−1, 2-fold dilutions from 7.5 µM, 16 h 37°C, purified peptide, mean of triplicate assays
# Method: as §2
# L. monocytogenes LO28 = assay: Broth MIC, Gram positive; assay type: cell-based; conditions: broth microtitre, BSA pre-treated plates, 10^5 cfu ml^−1, 2-fold dilutions from 7.5 µM, 16 h 37°C, purified peptide, mean of triplicate assays
# Method: as §2
# S. aureus RF122 = assay: Broth MIC, Gram positive; assay type: cell-based; conditions: broth microtitre, BSA pre-treated plates, 10^5 cfu ml^−1, 2-fold dilutions, 16 h 37°C, purified peptide, mean of triplicate assays
# Method: as §2
# [3] = tested on: ST 528 (Methicillin resistant S. aureus); assay: Broth MIC, Gram positive; assay type: cell-based; conditions: broth microtitre, BSA pre-treated plates, 10^5 cfu ml^−1, 2-fold dilutions from 2.5 µM, 16 h 37°C, purified peptide, mean of triplicate assays
# Method: as §2
# [4] = tested on: ST 530 (Methicillin resistant S. aureus); assay: Broth MIC, Gram positive; assay type: cell-based; conditions: broth microtitre, BSA pre-treated plates, 10^5 cfu ml^−1, 2-fold dilutions from 2.5 µM, 16 h 37°C, purified peptide, mean of triplicate assays
# Method: as §2
# [5] = tested on: hVISA 32679 (heterogenous Vancomycin-intermediate S. aureus); assay: Broth MIC, Gram positive; assay type: cell-based; conditions: broth microtitre, BSA pre-treated plates, 10^5 cfu ml^−1, 2-fold dilutions from 5 µM, 16 h 37°C, purified peptide, mean of triplicate assays
# Method: as §2
# S. mitis UCC5000 = assay: Broth MIC, Gram positive; assay type: cell-based, Streptococcus mitis; conditions: broth microtitre, BSA pre-treated plates, 10^5 cfu ml^−1, 2-fold dilutions from 10 µM, 16 h 37°C, purified peptide, mean of triplicate assays
# Method: as §2
# B. cereus DPC 6088 = assay: Broth MIC, Gram positive; assay type: cell-based, Bacillus cereus; conditions: broth microtitre, BSA pre-treated plates, 10^5 cfu ml^−1, 2-fold dilutions from 10 µM, 16 h 37°C, purified peptide, mean of triplicate assays
# Method: as §2
# B. cereus DPC 6089 = assay: Broth MIC, Gram positive; assay type: cell-based, Bacillus cereus; conditions: broth microtitre, BSA pre-treated plates, 10^5 cfu ml^−1, 2-fold dilutions from 10 µM, 16 h 37°C, purified peptide, mean of triplicate assays
# Method: as §2
# E. durans 5133 = assay: Broth MIC, Gram positive; assay type: cell-based, Enterococcus durans; conditions: broth microtitre, BSA pre-treated plates, 10^5 cfu ml^−1, 2-fold dilutions from 2.5 µM, 16 h 37°C, purified peptide, mean of triplicate assays
# Method: as §2
# C. sakazakii DPC 6440 [6] = assay: Agarose gel diffusion assay, purified peptide; assay type: cell-based, Cronobacter sakazakii; conditions: purified peptide 60 µM; for Zone of inhibition, agarose gel diffusion: C. sakazakii DPC 6440, mean of triplicate assays
# Method: as §1
# E. coli 0157-H7 [7] = assay: Agarose gel diffusion assay, purified peptide; assay type: cell-based; conditions: purified peptide 60 µM; for Zone of inhibition, agarose gel diffusion: E. coli 0157-H7, mean of triplicate assays
# Method: as §1
# [8] = tested on: Salmonella enterica serovar Typhimurium UK1; assay: Agarose gel diffusion assay, purified peptide; assay type: cell-based; conditions: purified peptide 60 µM; for Zone of inhibition, agarose gel diffusion: Salmonella Typhimurium UK1, mean of triplicate assays
# Method: as §1
# C. sakazakii DPC 6440 [9] = assay: Broth MIC, Gram negative; assay type: cell-based, Cronobacter sakazakii; conditions: cells washed in 10 mM SPB pH 7.4, 2×10^5 CFU/mL, 2 h RT with peptide, then double strength LB, RT overnight, mean of triplicate assays
# Method: (§3) Minimum inhibitory concentration determinations for Gram negative strains were carried out in triplicate in 96 well microtitre plates. Briefly, bacteria (E. coli, C. sakazakii and Salmonella) grown to mid-logarithmic phase were harvested by centrifugation, washed with 10 mM SPB at pH 7.4, and diluted to 2×10^5 colony-forming units (CFU)/mL in SPB. Nisin and nisin derivative peptides were resuspended in sterile HPLC water and 50 µL aliquots were added to wells containing 50 µL of 2×10^5 CFU of bacteria. Plates were incubated at RT for two hours with agitation. Double strength Luria–Bertani (LB) broth (100 µL) was added and the plates were incubated at RT overnight, the MIC was taken as the lowest concentration at which growth was inhibited.
# E. coli 0157-H7 [10] = assay: Broth MIC, Gram negative; assay type: cell-based; conditions: cells washed in 10 mM SPB pH 7.4, 2×10^5 CFU/mL, 2 h RT with peptide, then double strength LB, RT overnight, mean of triplicate assays
# Method: as §3
# [11] = tested on: Salmonella enterica serovar Typhimurium UK1; assay: Broth MIC, Gram negative; assay type: cell-based; conditions: cells washed in 10 mM SPB pH 7.4, 2×10^5 CFU/mL, 2 h RT with peptide, then double strength LB, RT overnight, mean of triplicate assays
# Method: as §3
# C. sakazakii DPC 6440 [12] = assay: Agarose gel diffusion assay, peptide alone or with polymyxin B nonapeptide (PMBN); assay type: cell-based, Cronobacter sakazakii; conditions: for Total area of inhibitory zone, peptide alone: purified peptide 30 µM alone; for Total area of inhibitory zone, peptide + PMBN: purified peptide 30 µM in combination with polymyxin B nonapeptide (PMBN) 20 µg/ml
# Method: as §1
# Polymyxin B (PMB) is a cyclic lipodecapaptide produced by bacteria of the genus Paenibacillus that acts primarily on the Gram negative cell wall, leading to rapid permeability changes in the cytoplasmic membrane and ultimately cell death. […] To that end, C. sakazakii DPC 6440 cells were treated with purified nisin A, S29G and S29A peptides alone (30 µM) or in combination with PMBN at a concentration of 20 µg/ml and determined the antimicrobial activity by agarose gel diffusion assay (Fig. 5). […] When used in combination with PMBN, a substantial synergistic effect was clearly evident (Fig. 5) but in this instance no significant difference in efficacy was observed between nisin A or either of the derivatives S29A or S29G.
# C. sakazakii DPC 6440 [13] = assay: Kill curve analysis; assay type: cell-based, Cronobacter sakazakii; conditions: 33 mg/L purified peptide, 2×10^5 cfu ml^−1, 37°C for 1 hour
# Method: (§4) Using purified peptide in each case, 10 mM sodium phosphate buffer washed C. sakazakii, E. coli and Salmonella strains were diluted to a final concentration of 2×10^5 cfu ml^−1 and were exposed to nisin A, S29G and S29A at a concentration of 33 mg/L. Following incubation at 37°C for 1 hour, bacterial growth was monitored through plate counts.
# E. coli = assay: Kill curve analysis; assay type: cell-based; conditions: 33 mg/L purified peptide, 2×10^5 cfu ml^−1, 37°C for 1 hour
# Method: as §4
# S. typhimurium UK-1 = assay: Kill curve analysis; assay type: cell-based, Salmonella enterica serovar Typhimurium; conditions: 33 mg/L purified peptide, 2×10^5 cfu ml^−1, 37°C for 1 hour
# Method: as §4
Substance,Zone Diameter (mm) (Lactococcus lactis HP),% difference (zone relative to wild type) (Lactococcus lactis HP),MIC (L. lactis HP),MIC (L. lactis MG1363 [2]),MIC (L. monocytogenes 10403S),MIC (L. monocytogenes LO28),MIC (S. aureus RF122),MIC [3],MIC [4],MIC [5],MIC (S. mitis UCC5000),MIC (B. cereus DPC 6088),MIC (B. cereus DPC 6089),MIC (E. durans 5133),"Zone of inhibition, agarose gel diffusion (C. sakazakii DPC 6440 [6])","Zone of inhibition, agarose gel diffusion (E. coli 0157-H7 [7])","Zone of inhibition, agarose gel diffusion [8]",MIC (C. sakazakii DPC 6440 [9]),MIC (E. coli 0157-H7 [10]),MIC [11],other results
"nisin 1–28: truncated version of nisin, literature (ITSISLCTPGCKTGALMGCNMKTATCHC; ends and bridges not checked; cysteine pairing not given here; UniProt P13068 24-51, looked up, fragment)",,,,,,,,,,,,,,,,,,,,,fold reduced inhibitory activity relative to nisin (L. lactis MG1363 [1]): 100 fold
"S29A: bioengineered nisin A derivative, serine 29 replaced by alanine (ITSISLCTPGCKTGALMGCNMKTATCHCAIHVSK; not fully specified (residues 2, 5, 33, bridges); cysteine pairing not given here; UniProt P13068 24-57, looked up, variant S29A)",16.6±0.3 mm,109 (0.004) %,0.1 mg/L and 0.031 µM,0.2 mg/L and 0.062 µM,6.28 mg/L and 1.875 µM,3.14 mg/L and 0.937 µM,0.52 mg/L and 0.156 µM,0.26 mg/L and 0.078 µM,0.26 mg/L and 0.078 µM,2 mg/L and 0.625 µM,4.19 mg/L,2 mg/L,4.19 mg/L and 1.25 µM,0.13 mg/L and 0.039 µM,11.65±0.12 mm,11.50±0.05 mm,11.29±0.23 mm,6.28 mg/L and 1.875 µM,25.14 mg/L and 7.5 µM,50.28 mg/L and 15 µM,"Zone as % wt (C. sakazakii DPC 6440 [6]; C. sakazakii DPC 6440, relative to nisin A): 119 % wt; Zone as % wt (E. coli 0157-H7 [7]; E. coli 0157-H7, relative to nisin A): 117 % wt; Zone as % wt ([8]; Salmonella Typhimurium UK1, relative to nisin A): 114 % wt; Total area of inhibitory zone, peptide alone (C. sakazakii DPC 6440 [12]): 49.0±1.24 mm^2; Total area of inhibitory zone, peptide + PMBN (C. sakazakii DPC 6440 [12]): 121.5±6.3 mm^2; Killing compared with nisin A (plate counts) (C. sakazakii DPC 6440 [13]): greater activity than wildtype nisin A; Killing compared with nisin A (plate counts) (E. coli): greater activity than wildtype nisin A; Killing compared with nisin A (plate counts) (S. typhimurium UK-1): greater activity than wildtype nisin A"
"nisin A (ITSISLCTPGCKTGALMGCNMKTATCHCSIHVSK; thioether (positions not given here); not fully specified (residues 2, 5, 33, bridges); also: lantibiotic, ring and dehydro modifications not given here; UniProt P13068 24-57, looked up) [wild type lantibiotic bacteriocin purified from L. lactis NZ9700; serine at position 29, reference compound]",15.2±0.2 mm,100%,0.2 mg/L and 0.062 µM,0.8 mg/L and 0.250 µM,12.57 mg/L and 3.75 µM,6.28 mg/L and 1.875 µM,1.04 mg/L,0.52 mg/L and 0.156 µM,0.52 mg/L and 0.156 µM,4.19 mg/L,8.38 mg/L and 2.5 µM,8.38 mg/L and 2.5 µM,8.38 mg/L and 2.5 µM,0.52 mg/L and 0.156 µM,9.77±0.17 mm,9.81±0.04 mm,9.88±0.11 mm,12.57 mg/L and 3.75 µM,50.28 mg/L and 15 µM,> 100 mg/L and > 30 µM,"MIC (S. aureus RF122; listed as NisinA): 0.312 µM; MIC ([5]; listed as NisinA): 1.25 µM; Total area of inhibitory zone, peptide alone (C. sakazakii DPC 6440 [12]): 40.0±2.3 mm^2; Total area of inhibitory zone, peptide + PMBN (C. sakazakii DPC 6440 [12]): 115.61±2.9 mm^2"
